# Patent US8058447B2, “4-Chromenonyl-1,4-dihydropyridinecarbonitriles and the use thereof” (Bayer Pharma Aktiengesellschaft, priority 2005, dated 2011)
# pIC50: −log10 of the molar value.
# Molecular target: T1, human mineralocorticoid receptor (MR) (Homo sapiens, UniProt P08235)
# T1 construct: expressed in transfected cells
# T1 sequence (P08235 734-984 limits assumed): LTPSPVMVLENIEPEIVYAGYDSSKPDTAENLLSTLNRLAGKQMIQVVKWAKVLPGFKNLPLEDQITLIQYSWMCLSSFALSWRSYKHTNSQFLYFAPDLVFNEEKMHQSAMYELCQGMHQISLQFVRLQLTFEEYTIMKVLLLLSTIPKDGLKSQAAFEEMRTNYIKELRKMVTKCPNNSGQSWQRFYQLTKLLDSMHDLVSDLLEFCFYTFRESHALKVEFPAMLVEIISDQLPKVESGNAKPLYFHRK
# Assay: Cellular in vitro assay to determine the inhibitory MR activity (GAL4-MR chimera luciferase reporter in CHO K1 cells)
# Type: cell-based
# Settings: antagonism of aldosterone-stimulated luciferase in CHO K1 cells expressing GAL4-MR chimera
# From the text: 1. Cellular In Vitro Assay to Determine the Inhibitory MR Activity and MR Selectivity Compared with Other Steroid Hormone Receptors
# Antagonists of the human mineralocorticoid receptor (MR) are identified, and the activity of the compounds described herein is quantified with the aid of a recombinant cell line. The cell is originally derived from a hamster ovary epithelial cell (Chinese Hamster Ovary, CHO K1, ATCC: American Type Culture Collection, VA 20108, USA).
# An established chimera system in which the ligand-binding domains of human steroid hormone receptors are fused to the DNA binding domain of the yeast transcription factor GAL4 is used in this CHO K1 cell line. The GAL4-steroid hormone receptor chimeras produced in this way are cotransfected and stably expressed with a reporter construct in the CHO cells.
# To generate the GAL4-steroid hormone receptor chimeras, the GAL4 DNA binding domain (amino acids 1-147) from the vector pFC2-dbd (from Stratagene) is cloned with the PCR-amplified ligand-binding domains of the mineralocorticoid receptor (MR, amino acids 734-985), of the glucocorticoid receptor (GR, amino acids 443-777), of the progesterone receptor (PR, amino acids 680-933) and of the androgen receptor (AR, amino acids 667-919) into the vector pIRES2 (from Clontech). The reporter construct, which comprises five copies of the GAL4 binding site upstream of a thymidine kinase promoter, leads to expression of firefly luciferase (Photinus pyralis) after activation and binding of the GAL4-steroid hormone receptor chimeras by the respective specific agonists aldosterone (MR), dexamethasone (GR), progesterone (PR) and dihydrotestosterone (AR).
# The MR, GR, PR and AR cells are plated out in medium (Optimem, 2.5% FCS, 2 mM glutamine, 10 mM HEPES) in 96- (or 384- or 1536-) well microtiter plates on the day before the assay and are kept in a cell incubator (96% humidity, 5% v/v CO2, 37° C.). On the day of the assay, the substances to be tested are taken up in the abovementioned medium and added to the cells. About 10 to 30 minutes after addition of the test substances, the respective specific agonists of the steroid hormone receptors are added. After a further incubation time of 5 to 6 hours, the luciferase activity is measured with the aid of a video camera. The measured relative light units as a function of the substance concentration result in a sigmoidal stimulation curve. The IC50 values are calculated with the aid of the GraphPad PRISM computer program (Version 3.02).
row,pIC50,SMILES
1,6.71,"CCOC(=O)C1=C(C)NC(C(F)(F)F)=C(C#N)C1c1cccc2c(=O)cc(C)oc12 (racemic) [Example 29, Ethyl 5-cyano-2-methyl-4-(2-methyl-4-oxo-4H-chromen-8-yl)-6-(trifluoromethyl)-1,4-dihydropyridine-3-carboxylate]"
2,7.66,"CC1=C(C#N)[C@@H](c2cc(F)c(F)c3c(=O)cc(C)oc23)C(C(=O)OC2CCC2)=C(C)N1 (single isomer, unassigned) [Example 18]"
3,7.05,"CCOC(=O)C1=C(C)NC(C(F)(F)F)=C(C#N)[C@H]1c1cccc2c(=O)cc(C)oc12 (single isomer, unassigned) [Example 30]"
4,6.90,"CC1=C(C#N)C(c2ccc(F)c3c(=O)cc(C)oc23)C(C(=O)CC2CCC2)=C(C)N1 (centres unmarked) [Example 13, 5-(Cyclobutylacetyl)-4-(5-fluoro-2-methyl-4-oxo-4H-chromen-8-yl)-2,6-dimethyl-1,4-dihydropyridine-3-carbonitrile]"
5,6.71,"CC1=C(C#N)C(c2ccc(F)c3c(=O)cc(C)oc23)C(C(=O)CCC(C)C)=C(C)N1 (centres unmarked) [Example 14, 4-(5-Fluoro-2-methyl-4-oxo-4H-chromen-8-yl)-2,6-dimethyl-5-(4-methylpentanoyl)-1,4-dihydropyridine-3-carbonitrile]"
6,7.03,"CC1=C(C#N)C(c2ccc(F)c3c(=O)cc(C)oc23)C(C(=O)CCC2CCC2)=C(C)N1 (centres unmarked) [Example 15, 5-(3-Cyclobutylpropanoyl)-4-(5-fluoro-2-methyl-4-oxo-4H-chromen-8-yl)-2,6-dimethyl-1,4-dihydropyridine-3-carbonitrile]"
7,6.98,"CC1=C(C#N)C(c2ccc([N+](=O)[O-])c3c(=O)cc(C)oc23)C(C(=O)OC(C)C)=C(C)N1 (centres unmarked) [Example 32, Isopropyl 5-cyano-2,6-dimethyl-4-(2-methyl-5-nitro-4-oxo-4H-chromen-8-yl)-1,4-dihydropyridine-3-carboxylate]"
8,6.54,"CC1=C(C#N)C(c2cccc3c(=O)cc(C)oc23)C(C(=O)CC2CCCC2)=C(C)N1 (centres unmarked) [Example 41, 5-(Cyclopentylacetyl)-2,6-dimethyl-4-(2-methyl-4-oxo-4H-chromen-8-yl)-1,4-dihydropyridine-3-carbonitrile]"
